Data published in ChEMBL document CHEMBL5550200, “Back-Pocket Optimization of 2-Aminopyrimidine-Based Macrocycles Leads to Potent EPHA2/GAK Kinase Inhibitors” (J Med Chem, 2024).

What was measured:
Ephrin type-A receptor 2 = Ephrin type-A receptor 2 (Homo sapiens, UniProt P29317)
Description: Induction of stabilization of recombinant EPHA2 (D596 to G900 residues) (unknown origin) expressed in Escherichia coli rosetta BL21(D3)-R3-pRARE2 competent cells assessed as change in melting temperature by differential scanning fluorimetry assay

[1] = molecular target: Ephrin type-A receptor 7 (Homo sapiens) (UniProt Q15375); assay: Induction of stabilization of recombinant EPHA7 (unknown origin) assessed as change in melting temperature by differential scanning fluorimetry assay
[2] = molecular target: T1, Cyclin-G-associated kinase (Homo sapiens) (UniProt O14976)
T1 sequence (whole entry): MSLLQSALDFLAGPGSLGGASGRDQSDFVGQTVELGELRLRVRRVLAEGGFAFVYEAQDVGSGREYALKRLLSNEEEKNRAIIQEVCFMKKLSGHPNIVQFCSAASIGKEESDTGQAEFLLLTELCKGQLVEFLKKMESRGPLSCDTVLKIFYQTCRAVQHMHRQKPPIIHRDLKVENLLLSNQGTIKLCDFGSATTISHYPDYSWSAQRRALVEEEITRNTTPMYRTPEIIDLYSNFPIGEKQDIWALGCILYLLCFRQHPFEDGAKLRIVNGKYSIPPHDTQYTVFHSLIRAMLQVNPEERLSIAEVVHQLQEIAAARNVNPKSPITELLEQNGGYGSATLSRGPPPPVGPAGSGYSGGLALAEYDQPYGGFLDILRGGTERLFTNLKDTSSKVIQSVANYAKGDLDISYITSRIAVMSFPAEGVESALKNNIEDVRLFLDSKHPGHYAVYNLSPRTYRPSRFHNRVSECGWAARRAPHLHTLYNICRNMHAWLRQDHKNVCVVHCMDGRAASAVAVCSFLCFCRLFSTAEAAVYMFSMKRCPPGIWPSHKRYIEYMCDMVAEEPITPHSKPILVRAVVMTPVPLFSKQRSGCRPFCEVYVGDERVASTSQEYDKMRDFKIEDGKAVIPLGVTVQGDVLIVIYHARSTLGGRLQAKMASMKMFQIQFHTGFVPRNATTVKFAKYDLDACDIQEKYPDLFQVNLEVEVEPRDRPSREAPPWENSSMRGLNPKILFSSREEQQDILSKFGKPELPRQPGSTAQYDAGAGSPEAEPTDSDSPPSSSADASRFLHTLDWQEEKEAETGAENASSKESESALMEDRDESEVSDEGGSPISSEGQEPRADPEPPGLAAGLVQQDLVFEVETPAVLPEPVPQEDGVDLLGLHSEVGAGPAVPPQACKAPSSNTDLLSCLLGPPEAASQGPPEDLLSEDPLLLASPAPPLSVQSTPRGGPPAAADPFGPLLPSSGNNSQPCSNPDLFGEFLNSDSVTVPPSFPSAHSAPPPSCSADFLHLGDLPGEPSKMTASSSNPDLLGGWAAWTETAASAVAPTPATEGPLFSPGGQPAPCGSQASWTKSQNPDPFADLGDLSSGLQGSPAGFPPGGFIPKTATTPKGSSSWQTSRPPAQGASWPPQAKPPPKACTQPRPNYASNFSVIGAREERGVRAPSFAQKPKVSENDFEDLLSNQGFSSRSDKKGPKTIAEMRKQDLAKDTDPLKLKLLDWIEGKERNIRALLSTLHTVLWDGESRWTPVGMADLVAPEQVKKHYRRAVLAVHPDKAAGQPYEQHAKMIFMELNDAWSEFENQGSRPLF
Description: Induction of stabilization of recombinant GAK (unknown origin) assessed as change in melting temperature by differential scanning fluorimetry assay

[3] = molecular target: T2, Ephrin type-B receptor 3 (Homo sapiens) (UniProt P54753); assay: Induction of stabilization of recombinant EPHB3 (unknown origin) assessed as change in melting temperature by differential scanning fluorimetry assay
T2 sequence (whole entry): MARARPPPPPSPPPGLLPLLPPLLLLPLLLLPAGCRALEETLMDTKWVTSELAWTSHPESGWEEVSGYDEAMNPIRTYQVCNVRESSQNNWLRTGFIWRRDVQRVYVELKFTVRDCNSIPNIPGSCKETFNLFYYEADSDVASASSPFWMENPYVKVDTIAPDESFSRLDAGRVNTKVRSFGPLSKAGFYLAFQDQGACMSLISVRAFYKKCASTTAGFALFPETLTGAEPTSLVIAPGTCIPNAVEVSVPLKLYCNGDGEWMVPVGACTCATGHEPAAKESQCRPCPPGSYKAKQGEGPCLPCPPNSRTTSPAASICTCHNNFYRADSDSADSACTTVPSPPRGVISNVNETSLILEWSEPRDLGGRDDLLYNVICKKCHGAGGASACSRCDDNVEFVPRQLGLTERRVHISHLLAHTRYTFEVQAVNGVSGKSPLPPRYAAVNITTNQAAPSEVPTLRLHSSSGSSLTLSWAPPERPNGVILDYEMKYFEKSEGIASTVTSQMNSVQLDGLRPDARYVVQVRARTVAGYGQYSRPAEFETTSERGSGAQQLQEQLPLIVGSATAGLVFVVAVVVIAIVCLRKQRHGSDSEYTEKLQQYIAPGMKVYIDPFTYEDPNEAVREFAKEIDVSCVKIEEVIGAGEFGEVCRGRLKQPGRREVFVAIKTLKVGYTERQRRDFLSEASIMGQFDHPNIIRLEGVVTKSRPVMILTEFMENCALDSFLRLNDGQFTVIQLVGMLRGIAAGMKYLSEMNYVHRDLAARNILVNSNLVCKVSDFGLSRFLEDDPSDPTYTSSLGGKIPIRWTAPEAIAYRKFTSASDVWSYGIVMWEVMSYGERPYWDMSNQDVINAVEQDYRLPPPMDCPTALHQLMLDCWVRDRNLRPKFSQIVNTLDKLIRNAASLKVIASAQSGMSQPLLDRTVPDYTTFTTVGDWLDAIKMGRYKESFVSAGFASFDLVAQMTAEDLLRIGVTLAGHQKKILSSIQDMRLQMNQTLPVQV

[4] = molecular target: Vascular endothelial growth factor receptor 1 (Homo sapiens, UniProt P17948); assay: Induction of stabilization of recombinant FLT1 (unknown origin) assessed as change in melting temperature by differential scanning fluorimetry assay
[5] = molecular target: Fibroblast growth factor receptor 2 (Homo sapiens) (UniProt P21802)
Description: Induction of stabilization of recombinant FGFR2 (unknown origin) assessed as change in melting temperature by differential scanning fluorimetry assay

[6] = molecular target: Ephrin type-A receptor 5 (Homo sapiens) (UniProt P54756)
Description: Induction of stabilization of recombinant EPHA5 (unknown origin) assessed as change in melting temperature by differential scanning fluorimetry assay

[7] = molecular target: Fibroblast growth factor receptor 1 (Homo sapiens, UniProt P11362)
Description: Induction of stabilization of recombinant FGFR1 (unknown origin) assessed as change in melting temperature by differential scanning fluorimetry assay

Ephrin type-A receptor 4 = Ephrin type-A receptor 4 (Homo sapiens, UniProt P54764); assay: Induction of stabilization of recombinant EPHA4 (unknown origin) assessed as change in melting temperature by differential scanning fluorimetry assay
[8] = molecular target: T3, Ephrin type-B receptor 1 (Homo sapiens) (UniProt P54762); assay: Induction of stabilization of recombinant EPHB1 (unknown origin) assessed as change in melting temperature by differential scanning fluorimetry assay
T3 sequence (whole entry): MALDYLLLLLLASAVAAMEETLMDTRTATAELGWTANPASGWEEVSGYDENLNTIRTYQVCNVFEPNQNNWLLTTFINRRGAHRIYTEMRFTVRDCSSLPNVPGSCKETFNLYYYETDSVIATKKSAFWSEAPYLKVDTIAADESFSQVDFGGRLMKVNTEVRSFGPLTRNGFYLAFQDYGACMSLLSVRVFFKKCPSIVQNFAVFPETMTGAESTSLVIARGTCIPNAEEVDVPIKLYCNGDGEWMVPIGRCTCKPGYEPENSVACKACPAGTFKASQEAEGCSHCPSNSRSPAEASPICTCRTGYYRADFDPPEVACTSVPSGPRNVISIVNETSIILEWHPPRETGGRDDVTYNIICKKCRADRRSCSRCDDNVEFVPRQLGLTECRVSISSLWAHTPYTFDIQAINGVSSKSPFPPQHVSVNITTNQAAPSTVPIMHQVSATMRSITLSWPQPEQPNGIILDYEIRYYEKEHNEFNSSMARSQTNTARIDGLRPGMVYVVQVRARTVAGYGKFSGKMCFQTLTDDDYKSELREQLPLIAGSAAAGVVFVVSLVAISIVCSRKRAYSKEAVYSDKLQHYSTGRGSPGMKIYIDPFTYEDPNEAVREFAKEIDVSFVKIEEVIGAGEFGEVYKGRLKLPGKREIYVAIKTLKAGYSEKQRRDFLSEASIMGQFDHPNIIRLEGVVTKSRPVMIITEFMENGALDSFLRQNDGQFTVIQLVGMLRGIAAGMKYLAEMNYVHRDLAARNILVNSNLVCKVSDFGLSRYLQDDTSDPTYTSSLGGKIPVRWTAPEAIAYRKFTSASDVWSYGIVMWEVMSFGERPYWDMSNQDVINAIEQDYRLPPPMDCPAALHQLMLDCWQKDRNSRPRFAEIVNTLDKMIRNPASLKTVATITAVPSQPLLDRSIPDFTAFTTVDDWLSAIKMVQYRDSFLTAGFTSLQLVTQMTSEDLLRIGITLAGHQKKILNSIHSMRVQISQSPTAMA

Sequence of Fibroblast growth factor receptor 2 (Homo sapiens) (P21802 22-821 limits assumed): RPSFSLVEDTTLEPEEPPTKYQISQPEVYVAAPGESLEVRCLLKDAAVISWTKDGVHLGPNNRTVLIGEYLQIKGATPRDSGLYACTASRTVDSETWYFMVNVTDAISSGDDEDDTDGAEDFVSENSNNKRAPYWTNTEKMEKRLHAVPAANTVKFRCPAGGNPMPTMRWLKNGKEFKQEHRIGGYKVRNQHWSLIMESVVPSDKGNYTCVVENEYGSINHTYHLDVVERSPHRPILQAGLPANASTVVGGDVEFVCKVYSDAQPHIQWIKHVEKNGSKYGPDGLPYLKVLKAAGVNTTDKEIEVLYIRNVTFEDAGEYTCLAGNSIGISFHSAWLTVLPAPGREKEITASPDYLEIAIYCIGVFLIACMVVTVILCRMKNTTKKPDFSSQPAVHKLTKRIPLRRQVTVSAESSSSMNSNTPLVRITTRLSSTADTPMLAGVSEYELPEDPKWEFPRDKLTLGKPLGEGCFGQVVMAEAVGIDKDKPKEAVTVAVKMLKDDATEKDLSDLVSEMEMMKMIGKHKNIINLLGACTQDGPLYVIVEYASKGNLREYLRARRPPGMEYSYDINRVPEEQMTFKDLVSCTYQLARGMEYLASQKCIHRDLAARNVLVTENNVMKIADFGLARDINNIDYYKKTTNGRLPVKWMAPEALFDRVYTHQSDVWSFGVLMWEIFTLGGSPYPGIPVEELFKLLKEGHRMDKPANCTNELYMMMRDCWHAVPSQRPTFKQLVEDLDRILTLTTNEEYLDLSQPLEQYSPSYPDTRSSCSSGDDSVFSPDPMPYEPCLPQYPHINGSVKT
Sequence of Ephrin type-A receptor 4 (P54764 whole entry): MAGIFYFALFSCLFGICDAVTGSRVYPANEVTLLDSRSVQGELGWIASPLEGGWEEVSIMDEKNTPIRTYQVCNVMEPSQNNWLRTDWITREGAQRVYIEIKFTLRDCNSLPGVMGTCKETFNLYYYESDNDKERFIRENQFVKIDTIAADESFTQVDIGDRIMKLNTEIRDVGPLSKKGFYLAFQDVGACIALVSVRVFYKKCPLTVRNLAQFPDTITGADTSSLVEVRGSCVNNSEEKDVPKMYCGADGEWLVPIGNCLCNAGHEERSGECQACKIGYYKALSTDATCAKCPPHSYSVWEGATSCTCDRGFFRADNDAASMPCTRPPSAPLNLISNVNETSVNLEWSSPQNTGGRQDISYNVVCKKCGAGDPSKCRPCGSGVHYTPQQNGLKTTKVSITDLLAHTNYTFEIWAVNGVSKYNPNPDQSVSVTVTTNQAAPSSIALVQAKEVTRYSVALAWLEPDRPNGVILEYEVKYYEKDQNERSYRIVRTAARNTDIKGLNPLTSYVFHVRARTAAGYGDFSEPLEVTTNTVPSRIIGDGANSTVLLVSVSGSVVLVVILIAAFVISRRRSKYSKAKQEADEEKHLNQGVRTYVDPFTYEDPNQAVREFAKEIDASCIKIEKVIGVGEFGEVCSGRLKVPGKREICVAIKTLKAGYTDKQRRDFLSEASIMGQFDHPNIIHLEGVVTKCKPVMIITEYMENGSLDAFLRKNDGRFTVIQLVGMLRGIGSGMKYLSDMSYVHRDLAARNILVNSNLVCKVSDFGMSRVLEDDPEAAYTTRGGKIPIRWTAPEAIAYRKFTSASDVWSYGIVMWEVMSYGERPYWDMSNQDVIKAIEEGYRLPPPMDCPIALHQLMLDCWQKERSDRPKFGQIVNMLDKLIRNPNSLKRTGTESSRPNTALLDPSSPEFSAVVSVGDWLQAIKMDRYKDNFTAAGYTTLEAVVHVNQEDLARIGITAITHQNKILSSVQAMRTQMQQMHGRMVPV
Sequence of Ephrin type-A receptor 2 (P29317 whole entry): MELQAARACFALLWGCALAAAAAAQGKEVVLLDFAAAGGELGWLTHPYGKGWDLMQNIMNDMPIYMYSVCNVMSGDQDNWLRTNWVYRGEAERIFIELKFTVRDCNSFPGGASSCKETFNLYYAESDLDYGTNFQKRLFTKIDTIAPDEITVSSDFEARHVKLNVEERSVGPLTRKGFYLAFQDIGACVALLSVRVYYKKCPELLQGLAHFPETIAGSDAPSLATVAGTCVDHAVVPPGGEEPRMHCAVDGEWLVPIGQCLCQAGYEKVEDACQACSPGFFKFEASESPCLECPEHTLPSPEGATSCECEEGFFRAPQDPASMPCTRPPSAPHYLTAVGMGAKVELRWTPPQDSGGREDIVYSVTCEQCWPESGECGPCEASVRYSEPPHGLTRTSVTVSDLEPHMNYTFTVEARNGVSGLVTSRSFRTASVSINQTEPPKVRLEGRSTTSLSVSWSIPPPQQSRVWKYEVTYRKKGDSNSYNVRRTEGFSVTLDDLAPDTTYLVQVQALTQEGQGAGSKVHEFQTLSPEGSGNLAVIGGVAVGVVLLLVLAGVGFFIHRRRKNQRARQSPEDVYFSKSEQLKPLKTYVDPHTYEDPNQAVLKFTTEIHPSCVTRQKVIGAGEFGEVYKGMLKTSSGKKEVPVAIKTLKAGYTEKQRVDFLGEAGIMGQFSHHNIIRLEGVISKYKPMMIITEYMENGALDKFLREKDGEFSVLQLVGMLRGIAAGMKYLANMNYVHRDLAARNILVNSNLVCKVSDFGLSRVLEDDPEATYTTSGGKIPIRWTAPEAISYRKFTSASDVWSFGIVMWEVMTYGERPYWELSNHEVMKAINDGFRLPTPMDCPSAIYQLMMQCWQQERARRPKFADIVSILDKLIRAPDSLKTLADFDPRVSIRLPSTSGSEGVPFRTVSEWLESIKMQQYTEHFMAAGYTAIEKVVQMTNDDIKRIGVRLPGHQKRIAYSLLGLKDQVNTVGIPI
Sequence of Ephrin type-A receptor 5 (Homo sapiens) (P54756 whole entry): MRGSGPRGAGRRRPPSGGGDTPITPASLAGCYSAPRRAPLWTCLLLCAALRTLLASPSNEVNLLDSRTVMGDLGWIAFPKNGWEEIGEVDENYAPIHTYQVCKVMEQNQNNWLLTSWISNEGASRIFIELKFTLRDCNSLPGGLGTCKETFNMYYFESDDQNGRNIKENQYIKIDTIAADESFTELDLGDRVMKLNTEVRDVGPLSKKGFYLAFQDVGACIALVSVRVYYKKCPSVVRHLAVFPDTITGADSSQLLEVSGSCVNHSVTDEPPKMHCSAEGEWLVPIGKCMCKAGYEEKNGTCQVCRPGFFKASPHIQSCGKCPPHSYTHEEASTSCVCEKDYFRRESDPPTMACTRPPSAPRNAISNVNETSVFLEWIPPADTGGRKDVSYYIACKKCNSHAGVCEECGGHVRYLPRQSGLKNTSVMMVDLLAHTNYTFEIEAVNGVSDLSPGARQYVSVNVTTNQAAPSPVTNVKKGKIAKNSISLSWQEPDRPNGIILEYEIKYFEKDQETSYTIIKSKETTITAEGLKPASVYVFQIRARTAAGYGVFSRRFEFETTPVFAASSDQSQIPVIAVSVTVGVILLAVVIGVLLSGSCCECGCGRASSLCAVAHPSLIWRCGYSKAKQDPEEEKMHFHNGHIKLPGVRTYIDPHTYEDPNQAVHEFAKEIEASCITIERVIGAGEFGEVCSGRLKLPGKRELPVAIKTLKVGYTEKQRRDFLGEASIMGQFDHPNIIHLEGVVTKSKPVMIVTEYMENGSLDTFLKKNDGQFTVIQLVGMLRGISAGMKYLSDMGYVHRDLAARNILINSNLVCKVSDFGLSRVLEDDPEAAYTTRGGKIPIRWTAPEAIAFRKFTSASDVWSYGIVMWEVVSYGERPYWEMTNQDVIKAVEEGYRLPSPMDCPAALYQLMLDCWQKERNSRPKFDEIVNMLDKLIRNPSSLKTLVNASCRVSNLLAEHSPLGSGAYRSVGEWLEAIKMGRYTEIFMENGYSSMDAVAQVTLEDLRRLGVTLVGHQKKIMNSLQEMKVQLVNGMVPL
Sequence of Ephrin type-A receptor 7 (Homo sapiens) (Q15375 28-998 limits assumed): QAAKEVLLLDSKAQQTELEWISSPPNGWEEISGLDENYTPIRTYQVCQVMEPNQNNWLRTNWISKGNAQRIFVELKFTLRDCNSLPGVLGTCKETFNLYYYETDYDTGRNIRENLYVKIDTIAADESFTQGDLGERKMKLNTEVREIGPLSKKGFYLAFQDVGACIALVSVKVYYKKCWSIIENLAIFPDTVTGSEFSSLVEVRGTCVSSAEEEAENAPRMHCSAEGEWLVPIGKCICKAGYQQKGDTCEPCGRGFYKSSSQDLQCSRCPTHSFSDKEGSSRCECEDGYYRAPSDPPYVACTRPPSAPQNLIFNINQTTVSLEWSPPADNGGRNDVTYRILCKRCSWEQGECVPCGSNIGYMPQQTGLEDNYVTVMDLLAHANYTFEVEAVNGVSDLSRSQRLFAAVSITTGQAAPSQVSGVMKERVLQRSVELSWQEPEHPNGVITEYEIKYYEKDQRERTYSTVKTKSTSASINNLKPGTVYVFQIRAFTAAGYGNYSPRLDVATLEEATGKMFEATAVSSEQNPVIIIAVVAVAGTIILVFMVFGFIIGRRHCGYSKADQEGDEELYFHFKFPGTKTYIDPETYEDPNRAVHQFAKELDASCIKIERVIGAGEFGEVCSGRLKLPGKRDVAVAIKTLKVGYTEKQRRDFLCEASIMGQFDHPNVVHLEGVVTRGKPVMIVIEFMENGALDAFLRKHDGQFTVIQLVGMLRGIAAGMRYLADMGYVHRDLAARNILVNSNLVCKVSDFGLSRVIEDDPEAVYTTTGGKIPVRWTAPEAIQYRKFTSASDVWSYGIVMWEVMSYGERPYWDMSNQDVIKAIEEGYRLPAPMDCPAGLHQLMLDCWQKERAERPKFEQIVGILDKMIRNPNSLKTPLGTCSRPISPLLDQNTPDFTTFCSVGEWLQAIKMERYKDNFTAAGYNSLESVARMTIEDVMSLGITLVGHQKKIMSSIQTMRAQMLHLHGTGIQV

SMILES	deltaTm (Ephrin type-A receptor 2)	deltaTm [1]	deltaTm [2]	deltaTm [3]	deltaTm [4]	deltaTm [5]	deltaTm [6]	deltaTm [7]	deltaTm (Ephrin type-A receptor 4)	deltaTm [8]
CC(C)Oc1cc(-c2cnc3nc2NCCCNS(=O)(=O)c2cccc(c2)N3)ccc1F	0.7 K	0.6 K	1.6 K	3.4 K	2.1 K	1.5 K	0.2 K	1 K	0.7 K	0 K
CN[C@@H]1C[C@H]2O[C@@](C)([C@@H]1OC)n1c3ccccc3c3c4c(c5c6ccccc6n2c5c31)C(=O)NC4	6.4 K	–	–	6.1 K	10.2 K	–	–	–	6.2 K	6.4 K
COc1cc(-c2cnc3nc2NCCCNS(=O)(=O)c2cc(ccc2Cl)N3)ccc1F	6.3 K	1.6 K	8.1 K	1.6 K	2.4 K	3.6 K	5 K	1.9 K	5.1 K	2.5 K
COc1cc(-c2cnc3nc2NCCCNS(=O)(=O)c2cc(ccc2OCCN2CCOCC2)N3)ccc1F	6.9 K	1 K	9 K	4.8 K	3 K	3.2 K	4.6 K	2.1 K	3.7 K	4.2 K
COC(=O)COc1ccc2cc1S(=O)(=O)NCCCNc1nc(ncc1-c1ccc(F)c(OC)c1)N2	2.4 K	0.4 K	3.7 K	1.4 K	0.3 K	1.3 K	2.3 K	0.5 K	1.6 K	1 K
O=S1(=O)NCCCNc2nc(ncc2-c2ccc(F)c(C(F)(F)F)c2)Nc2cccc1c2	3 K	0.9 K	3.1 K	0.6 K	1.8 K	2.1 K	1.6 K	1.3 K	0.7 K	0.6 K
O=S1(=O)NCCCNc2nc(ncc2-c2cc(Cl)c(Cl)cc2F)Nc2cccc1c2	9.5 K	0.4 K	6.5 K	5.4 K	5.4 K	5.7 K	5.6 K	4.5 K	3.8 K	3.5 K
COc1cc(-c2cnc3nc2NCCCNS(=O)(=O)c2cccc(c2)N3)ccc1C#N	8.6 K	0 K	8.9 K	3.1 K	1.1 K	1.7 K	6.2 K	0 K	5.2 K	5.2 K
COc1cc(-c2cnc3nc2NCCCNS(=O)(=O)c2cc(ccc2-c2ccc(O)cc2)N3)ccc1F	9.8 K	2.9 K	3.6 K	6 K	3.6 K	4 K	6.7 K	3.1 K	5.3 K	4.3 K
COc1ccc(-c2cnc3nc2NCCCNS(=O)(=O)c2cccc(c2)N3)cc1OC	4.6 K	0.8 K	6.1 K	1.4 K	4.1 K	3.3 K	2.1 K	2.3 K	1.4 K	0.6 K
COC(=O)c1cc(-c2cnc3nc2NCCCNS(=O)(=O)c2cccc(c2)N3)ccc1F	2.1 K	-2.8 K	-1.3 K	1.5 K	6.4 K	3.1 K	-0.7 K	3.5 K	-0.6 K	1.3 K
COc1cc(-c2cnc3nc2NCCCNS(=O)(=O)c2cccc(c2)N3)cc(C(F)(F)F)c1	1.8 K	1.4 K	3.3 K	1.1 K	5.3 K	5.8 K	1.3 K	4.9 K	0.8 K	0.9 K
O=S1(=O)NCCCNc2nc(ncc2Br)Nc2cccc1c2	6.7 K	–	4.9 K	–	–	–	–	–	–	–
